The source made the active and inactive calls.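 Rule for the calls: active = fitted curve drops below -35% activity at a concentration within twice the top valid tested dose; inconclusive = no clear call, values can overlap the other calls; inactive = signal rising instead of falling, among other cases.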
Assay: HepG2 hepatoma cell cytotoxicity, dose response, cytotoxicity control, CellTiter-Glo luminescence, cherry-pick, set 3 (AID 720589)
Settings: HepG2 viability, ATP luminescence (CellTiter-Glo), 72 h, hits give low values, 0% = untreated, negative = ATP loss

## COc1ccc2oc(C(=O)NCCc3ccccc3)c(C)c2c1
At 0.011 µM
  max activity: -16.8% (inactive)

## O=C(C[C@H]1C[C@H]2c3cc(NS(=O)(=O)c4ccc(F)cc4)ccc3O[C@H]2[C@H](CO)O1)NCc1ccc(Oc2ccccc2)cc1
At 26 µM
  max activity: 21.5% (inactive)

## COc1cc(/C=C/C(=O)CC(=O)/C=C/c2ccc(O)c(OC)c2)ccc1O
At 0.3 µM
  max activity: -27.1% (inactive)

## O=C(O)c1ccc(N/N=C/c2c(F)cccc2Cl)cc1
At 8 µM
  max activity: -13.6% (inactive)

## COC(=O)C[C@@H]1CC[C@@H]2[C@@H](COc3ccc(NC(=O)Nc4cccc(F)c4)cc3C(=O)N2C)O1
At 2.85 µM
  max activity: -34.7% (inactive)

## CCNC(=O)[C@@H]1[C@@H](CO)[C@@H]2Cn3c(ccc(C4=CCCCC4)c3=O)[C@H]1N2CC
At 26 µM
  max activity: -22.3% (inactive)

## COc1ccccc1/C=C1\SC(=S)N(CCC(=O)Nc2cc(C)on2)C1=O
At 0.011 µM
  max activity: -26.3% (inactive)

## CCc1cnc(N2[C@H](C#N)[C@H](c3ccc(C#Cc4ccccc4F)cc3)[C@H]2CO)s1
At 0.9 µM
  max activity: 65.8% (inactive)

## COC(=O)c1cccc(NC(=O)NC(=O)c2ccc(Cl)cc2)c1
At 8 µM
  max activity: -15.3% (inactive)

## COC(=O)C[C@@H]1CC[C@@H]2[C@H](COc3ccc(NC(=O)Nc4ccc(C#N)cc4)cc3C(=O)N2C)O1
At 0.9 µM
  max activity: -48.5% (inactive)

## C[C@@H]1CN([C@@H](C)CO)C(=O)Cc2cc(NC(=O)Nc3ccc(C(F)(F)F)cc3)ccc2O[C@@H]1CN(C)Cc1ccc(C(=O)Nc2ccccc2N)cc1
At 2.85 µM
  max activity: -33% (inactive)

## CC(C)(C)c1ccc(Cn2c(=O)cnc3ccccc32)cc1
At 26 µM
  max activity: -40.9% (inactive)

## CN(C)c1ccc(N=Nc2ccccc2Br)cc1
At 2.85 µM
  max activity: -41.2% (inactive)

## CCc1ccc(/C=C2\SC(=S)N(CCCC(=O)NC3=NCCS3)C2=O)cc1
At 8 µM
  max activity: -19% (inactive)

## CN(C)c1ccc2c(c1)[C@@H]1C[C@@H](CC(=O)NCc3ccc(Oc4ccccc4)cc3)O[C@H](CO)[C@@H]1O2
At 2.85 µM
  max activity: -31.7% (inactive)

## Nc1nc2cc3c(cc2cc1C(=O)NCCc1c[nH]c2ccccc12)OCO3
At 8 µM
  max activity: -32.5% (inactive)

## O=C(O)c1ccc(N/N=C/c2ccc(OC(=O)c3cccc(Cl)c3)cc2)cc1
At 26 µM
  max activity: -33.2% (inactive)

## Cc1nn(-c2ccc(F)cc2)c2nc(N)c(C#N)c(-c3ccc(O)c(O)c3)c12
At 26 µM
  max activity: -39.7% (inactive)

## O=C(CCCN1C(=O)S/C(=C\c2ccccc2)C1=O)NNC(=O)c1ccccc1O
At 26 µM
  max activity: -21.8% (inactive)

## COC(=O)COc1ccc(-c2nccc(-c3ccccn3)n2)cc1
At 26 µM
  max activity: 18.7% (inactive)

## O=C(Nc1ccc(NC(=O)c2cc3ccccc3o2)cc1)c1ccc2c(c1)OCCO2
At 0.9 µM
  max activity: -30.6% (inactive)

## N#CC1=C(N)Oc2cc(N)ccc2C1c1cccc(Br)c1 (configuration not stated)
At 26 µM
  max activity: -27% (inactive)

## CCOC(=O)C1CCCCN1C(=O)CCc1c(C)nc2cc(-c3ccccc3)nn2c1C (configuration not stated)
At 0.1 µM
  max activity: 21.3% (inactive)

## CCCc1cc(=O)oc2c3c(c4c(c12)OC(C)(C)C=C4)OC(C)C(C)C3O (configuration not stated)
At 0.3 µM
  max activity: -25.9% (inactive)

## N#C[C@@H]1[C@H](c2ccc(C#Cc3ccccc3F)cc2)[C@@H](CO)N1C(=O)c1cccnc1
At 2.85 µM
  max activity: -22% (inactive)

## O=C(COC(=O)c1ccc[nH]c1=O)Nc1ccc(N2CCCCC2)cc1
At 8 µM
  max activity: -25.3% (inactive)

## COC(=O)C[C@@H]1CC[C@@H]2[C@H](COc3ccc(NC(=O)Nc4cccc(C#N)c4)cc3C(=O)N2C)O1
At 0.1 µM
  max activity: 28.5% (inactive)

## C[C@H](CO)N1C[C@H](C)[C@H](CN(C)Cc2ccc(C(F)(F)F)cc2)Oc2c(NS(=O)(=O)c3ccc(Cl)cc3)cccc2C1=O
At 0.1 µM
  max activity: -20% (inactive)

## O=C(CCCN1C(=O)/C(=C/c2ccccc2Cl)SC1=S)NNC(=O)c1ccc(Cl)cc1
At 26 µM
  max activity: 22.9% (inactive)

## O=C(NCc1ccc(F)cc1)N1[C@H]2CC[C@@H]1C=C(c1ccc(F)cc1OCc1ccccc1)C2
At 0.011 µM
  max activity: 21.9% (inactive)

## CC(C)N1C/C(=C/c2cccnc2)C(=O)/C(=C/c2cccnc2)C1
At 26 µM
  max activity: -29.5% (inactive)

## Cc1ccccc1NC(=O)C(=Cc1ccc(C(=O)O)cc1)C(=O)Nc1ccccc1C
At 0.3 µM
  max activity: -13.1% (inactive)

## CCOC(=O)c1c(-c2ccc(C)cc2)csc1NC(=O)CCN1CCOCC1
At 0.011 µM
  max activity: 41.8% (inactive)

## Cc1nn(Cc2ccccc2Cl)c2sc(C(=O)Nc3ccccc3N3CCOCC3)cc12
At 0.1 µM
  max activity: 13.3% (inactive)

## N/C(=C\C(=O)c1cc(Cl)ccc1O)C(Cl)(Cl)Cl
At 0.011 µM
  max activity: -18.1% (inactive)

## N#CC1C=Cc2c(ccc3ccccc23)N1C(=O)c1ccccc1 (configuration not stated)
At 0.035 µM
  max activity: -32.3% (inactive)

## COc1ccc(C(=O)CN2C(=O)c3ccccc3S2(=O)=O)cc1
At 26 µM
  max activity: 10.2% (inactive)

## O=C(Sc1cccc2cccnc12)c1ccccc1Br
At 2.85 µM
  max activity: -31.3% (inactive)

## C=CC[n+]1c(-c2ccc(C)cc2)csc1Nc1ccc(NC(C)=O)cc1
At 0.011 µM
  max activity: 20.8% (inactive)

## C(=Cc1cnc2ccccc2n1)c1ccc2c(c1)OCO2
At 26 µM
  max activity: -50.5% (inactive)

## COCc1cc(C)nc2sc(C(=O)NCCO)c(-n3cccc3)c12
At 0.3 µM
  max activity: 7.49% (inactive)

## COc1ccc(OC)c(-c2nnc3n2N=C(c2ccc(OC)c(OC4CCOC4)c2)CS3)c1 (configuration not stated)
At 2.85 µM
  max activity: -28.2% (inactive)

Source: PubChem BioAssay AID720589 (Broad Institute, 2013)
